# Laboratory results as given in ChEMBL document CHEMBL1145108, “Fragment screening and assembly: a highly efficient approach to a selective and cell active protein tyrosine phosphatase 1B inhibitor” (J Med Chem, 2003).
# What was measured:
# [1] = molecular target: Tyrosine-protein phosphatase non-receptor type 2 (Homo sapiens, UniProt P17706); experiment: Inhibitory constant of compound against T cell protein tyrosine phosphatase was determined; assay type: cell-based
# [2] = molecular target: T1, Tyrosine-protein phosphatase non-receptor type 1 (Homo sapiens, UniProt P18031)
# T1 sequence (P18031 whole entry): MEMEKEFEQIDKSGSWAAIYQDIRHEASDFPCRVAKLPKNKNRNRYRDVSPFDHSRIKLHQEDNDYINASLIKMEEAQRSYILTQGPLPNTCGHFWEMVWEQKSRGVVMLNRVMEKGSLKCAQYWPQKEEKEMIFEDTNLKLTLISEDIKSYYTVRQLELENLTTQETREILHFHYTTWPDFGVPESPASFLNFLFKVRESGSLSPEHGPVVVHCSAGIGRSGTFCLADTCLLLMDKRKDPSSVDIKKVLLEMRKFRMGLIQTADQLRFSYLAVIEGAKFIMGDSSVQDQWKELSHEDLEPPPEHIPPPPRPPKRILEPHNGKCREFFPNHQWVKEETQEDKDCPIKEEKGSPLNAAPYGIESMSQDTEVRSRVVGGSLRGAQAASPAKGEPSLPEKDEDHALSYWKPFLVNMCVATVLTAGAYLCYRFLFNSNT
# Description: Binding affinity against protein tyrosine phosphatase PTB1B
# [3] = molecular target: T1, Tyrosine-protein phosphatase non-receptor type 1; experiment: Dissociation constant against Protein-tyrosine phosphatase 1B receptor was determined
# Chain of Tyrosine-protein phosphatase non-receptor type 2 (P17706 whole entry, looked up): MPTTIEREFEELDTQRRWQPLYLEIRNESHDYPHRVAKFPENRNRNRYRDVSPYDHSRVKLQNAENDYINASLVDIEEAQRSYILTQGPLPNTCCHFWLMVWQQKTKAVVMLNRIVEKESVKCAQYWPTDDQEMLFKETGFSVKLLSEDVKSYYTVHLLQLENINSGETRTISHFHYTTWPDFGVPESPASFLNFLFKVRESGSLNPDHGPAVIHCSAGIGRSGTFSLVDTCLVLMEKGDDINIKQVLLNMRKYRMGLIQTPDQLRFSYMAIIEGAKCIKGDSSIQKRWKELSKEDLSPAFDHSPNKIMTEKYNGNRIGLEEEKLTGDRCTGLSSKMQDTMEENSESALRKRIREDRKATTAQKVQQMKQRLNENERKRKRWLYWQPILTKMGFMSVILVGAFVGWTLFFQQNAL
Compound,Ki [1],Ki [2],Kd [3]
CCCC(=O)Nc1cccc(-c2cc(C(=O)O)no2)c1,634 µM,148 µM,–
O=C(O)c1cc(-c2ccc(Br)cc2)on1,–,–,800 µM
